Measured values taken from ChEMBL document CHEMBL5518206, “Hit-to-Lead Identification and Validation of a Triaromatic Pleuromutilin Antibiotic Candidate” (J Med Chem, 2024).
Values after ≈ are worked out from the molar mass of the structure shown.

Key:
[1] = AUC (0 to infinity) in NMRI female mouse at 30 mg/kg, po by HPLC analysis; format: ADME, organism-based; conditions: in vivo
[2] = tested on: Staphylococcus aureus; experiment: Antibacterial activity against multi drug-resistant Staphylococcus aureus USA300 FPR3757 assessed as inhibition of visible growth incubated for 20 to 24 hrs by microbroth serial dilution assay; format: functional; conditions: time 20-24 hrs, read-out: MIC100
[3] = in vitro; conditions: mouse, liver microsomes
[4] = tested on: Streptococcus pneumoniae; experiment: Antibacterial activity against Streptococcus pneumoniae assessed as inhibition of visible growth incubated for 20 to 24 hrs by microbroth serial dilution assay; format: functional; conditions: time 20-24 hrs, read-out: MIC100
[5] = Efflux ratio of apparent permeability from basolateral to apical side over apical to basolateral side in human Caco-2 cells at 280 uM and measured after 120 mins by LC-MS analysis; format: ADME, cell-based
[6] = Inhibition of P-gp efflux in MDCKII-MDR1 cells using calcein-AM as substrate assessed as intracellular calcein fluorescence preincubated for 15 mins followed by substrate addition and measured by fluorescence based assay; format: cell-based; conditions: Canis lupus familiaris
[7] = target: Cytochrome P450 3A4 (Homo sapiens, UniProt P08684); experiment: Inhibition of human CYP3A4 incubated for 60 mins by red fluorescent-probe-based microsomal assay; format: ADME
Sequence of Cytochrome P450 3A4 (P08684 whole entry): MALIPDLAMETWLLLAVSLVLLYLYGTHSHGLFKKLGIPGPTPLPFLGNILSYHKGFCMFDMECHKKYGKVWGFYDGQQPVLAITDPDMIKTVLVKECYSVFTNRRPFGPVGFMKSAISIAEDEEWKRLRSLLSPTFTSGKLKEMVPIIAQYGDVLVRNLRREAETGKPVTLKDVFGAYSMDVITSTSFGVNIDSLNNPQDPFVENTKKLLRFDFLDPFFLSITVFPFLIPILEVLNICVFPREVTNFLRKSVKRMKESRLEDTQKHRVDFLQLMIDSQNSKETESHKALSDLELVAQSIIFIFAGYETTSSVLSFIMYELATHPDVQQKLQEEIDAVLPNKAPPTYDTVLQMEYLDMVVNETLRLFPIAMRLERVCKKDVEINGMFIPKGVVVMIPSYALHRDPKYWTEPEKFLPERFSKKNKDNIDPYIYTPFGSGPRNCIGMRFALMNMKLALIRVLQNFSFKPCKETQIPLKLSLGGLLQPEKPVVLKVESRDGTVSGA

[8] = Apparent permeability from basolateral to apical side in human Caco-2 cells at 280 uM measured upto 120 mins by LC-MS analysis; format: ADME, cell-based
[9] = tested on: Staphylococcus aureus; experiment: Antibacterial activity against multi drug-resistant Staphylococcus aureus USA300 FPR3757 assessed as reduction in bacterial growth at 4 times of MIC concentration measured after 6 hrs by time-kill assay; format: functional
[10] = Apparent permeability from apical to basolateral side in human Caco-2 cells at 280 uM measured upto 120 mins by LC-MS analysis; format: ADME, cell-based
[11] = tested on: Enterococcus faecalis; experiment: Antibacterial activity against Enterococcus faecalis assessed as inhibition of visible growth incubated for 20 to 24 hrs by microbroth serial dilution assay; format: functional; conditions: time 20-24 hrs, read-out: MIC100
[12] = tested on: Enterococcus faecium; experiment: Antibacterial activity against Linezolid/Ampicillin/ciprofloxacin/Vancomycin-resistant Enterococcus faecium assessed as inhibition of visible growth incubated for 20 to 24 hrs by microbroth serial dilution assay; format: functional; conditions: time 20-24 hrs, read-out: MIC100
[13] = tested on: Staphylococcus aureus; experiment: Antibacterial activity against multi drug-resistant Staphylococcus aureus USA300 FPR3757 assessed as reduction in bacterial growth of original inoculum at 4 times of MIC concentration measured after 24 hrs by time-kill assay; format: functional
[14] = Clearance in NMRI female mouse at 60 mg/kg, sc by HPLC analysis; format: ADME, organism-based; conditions: in vivo
[15] = Bioavailability in pig plasma at 10 mg/kg, po measured upto 240 mins by LC-MS/MS analysis; format: ADME, organism-based, Sus scrofa
[16] = tested on: Enterococcus faecium; experiment: Antibacterial activity against Vancomycin-resistant Enterococcus faecium assessed as inhibition of visible growth incubated for 20 to 24 hrs by microbroth serial dilution assay; format: functional; conditions: time 20-24 hrs, read-out: MIC100
[17] = Plasma protein binding in human at 5 to 15 uM incubated for 5 hrs by LC-MS analysis; format: ADME, cell-free; conditions: dose 5-15 µM, read-out: PPB (converted)
[18] = Efflux ratio of apparent permeability from basolateral to apical side over apical to basolateral side in human Caco-2 cells at 100 uM and measured after 120 mins by LC-MS analysis; format: ADME, cell-based
[19] = AUC (0 to infinity) in pig urine at 10 mg/kg, po measured upto 240 mins by LC-MS/MS analysis; format: ADME, organism-based, Sus scrofa; conditions: in vivo, 4 h
[20] = in vitro; conditions: mouse, liver microsomes; remark: listed apart in the source
[21] = in vitro; conditions: pig, liver microsomes
[22] = tested on: Staphylococcus aureus; experiment: Antibacterial activity against multi drug-resistant Staphylococcus aureus USA300 FPR3757 assessed as reduction in bacterial growth of original inoculum at 4 times of MIC concentration measured after 24 hrs by time-kill assay relative to control; format: functional
[23] = tested on: MDCK-MDR1; experiment: Cytotoxicity against MDCKII-MDR1 cells assessed as cell viability at 100 uM measured by MTT assay; format: toxicity, cell-based, Canis lupus familiaris; conditions: dog, mdck-mdr1, 100 µM
[24] = in vitro; conditions: pig, liver microsomes; remark: listed apart in the source
[25] = tested on: Staphylococcus aureus; experiment: Antibacterial activity against multi drug-resistant Staphylococcus aureus USA300 FPR3757 assessed as reduction in bacterial growth at 1 times of MIC concentration measured at first 12 hrs by time-kill assay; format: functional
[26] = AUC (0 to infinity) in pig urine at 3 mg/kg, iv measured upto 240 mins by LC-MS/MS analysis; format: ADME, organism-based, Sus scrofa; conditions: in vivo, 4 h
[27] = Elimination rate constant in pig urine at 10 mg/kg, po measured upto 240 mins by LC-MS/MS analysis; format: ADME, organism-based, Sus scrofa
[28] = in vitro; conditions: human, liver microsomes
[29] = Solubility of the compound in Dulbecco's PBS at 20 degree C measured after 24 hrs
[30] = Elimination rate constant in NMRI female mouse at 30 mg/kg, iv by HPLC analysis; format: ADME, organism-based; conditions: in vivo
[31] = target: hERG (KCNH2) (Homo sapiens, UniProt Q12809); experiment: Inhibition of hERG expressed in HEK293 cells assessed as tail current at 60 uM measured after 8 mins by automated whole-cell Qpatch Clamp assay relative to control; conditions: HEK293 cells that express hERG
Sequence of hERG (KCNH2) (Q12809 whole entry): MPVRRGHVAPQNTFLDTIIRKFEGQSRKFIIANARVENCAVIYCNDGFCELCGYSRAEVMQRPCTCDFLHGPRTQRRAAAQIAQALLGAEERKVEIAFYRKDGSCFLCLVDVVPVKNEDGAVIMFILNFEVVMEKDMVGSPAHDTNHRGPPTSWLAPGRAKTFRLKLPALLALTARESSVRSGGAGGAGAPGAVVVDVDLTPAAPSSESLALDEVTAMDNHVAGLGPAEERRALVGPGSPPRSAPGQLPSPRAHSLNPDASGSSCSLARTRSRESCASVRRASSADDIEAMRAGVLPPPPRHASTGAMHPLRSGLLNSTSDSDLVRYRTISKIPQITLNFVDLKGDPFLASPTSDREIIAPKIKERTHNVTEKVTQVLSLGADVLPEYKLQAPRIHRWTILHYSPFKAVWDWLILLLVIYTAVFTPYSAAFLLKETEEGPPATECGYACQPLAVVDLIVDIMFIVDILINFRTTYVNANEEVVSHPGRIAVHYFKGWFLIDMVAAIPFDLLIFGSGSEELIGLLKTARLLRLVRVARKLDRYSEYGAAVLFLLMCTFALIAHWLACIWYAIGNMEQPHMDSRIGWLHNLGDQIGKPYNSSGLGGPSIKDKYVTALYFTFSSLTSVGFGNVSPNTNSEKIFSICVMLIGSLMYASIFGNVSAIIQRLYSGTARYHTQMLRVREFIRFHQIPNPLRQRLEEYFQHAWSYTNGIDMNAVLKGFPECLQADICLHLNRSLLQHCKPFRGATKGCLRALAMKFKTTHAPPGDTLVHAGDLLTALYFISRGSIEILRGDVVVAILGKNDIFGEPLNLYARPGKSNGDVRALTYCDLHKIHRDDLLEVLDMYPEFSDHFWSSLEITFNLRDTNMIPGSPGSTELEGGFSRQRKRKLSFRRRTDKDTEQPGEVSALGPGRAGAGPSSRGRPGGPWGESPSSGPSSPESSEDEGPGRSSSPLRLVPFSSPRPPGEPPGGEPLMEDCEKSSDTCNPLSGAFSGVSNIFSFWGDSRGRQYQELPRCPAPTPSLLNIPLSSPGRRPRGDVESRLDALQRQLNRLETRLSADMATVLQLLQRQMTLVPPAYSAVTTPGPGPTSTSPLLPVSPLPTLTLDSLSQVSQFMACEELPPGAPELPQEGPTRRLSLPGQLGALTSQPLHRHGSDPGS

[32] = Apparent permeability from apical to basolateral side in human Caco-2 cells at 100 uM measured upto 120 mins by LC-MS analysis; format: ADME, cell-based
[33] = Tmax in NMRI female mouse at 30 mg/kg, iv by HPLC analysis; format: ADME, organism-based; conditions: in vivo
[34] = target: Voltage-gated inwardly rectifying potassium channel KCNH2 (Homo sapiens, UniProt Q12809); experiment: Inhibition of hERG expressed in HEK293 cells assessed as tail current measured after 8 mins by automated whole-cell Qpatch Clamp assay
Sequence of Voltage-gated inwardly rectifying potassium channel KCNH2 (Q12809 whole entry): as above

[35] = in vitro; conditions: human, liver microsomes; remark: listed apart in the source
[36] = Apparent permeability from basolateral to apical side in human Caco-2 cells at 100 uM measured upto 120 mins by LC-MS analysis; format: ADME, cell-based
[37] = Cmax in NMRI female mouse at 30 mg/kg, iv by HPLC analysis; format: ADME, organism-based; conditions: in vivo
[38] = tested on: Staphylococcus aureus; experiment: (§1) Induction of resistant development in -(6-(6-(Piperazin-1-y1)-9H-purin-9-y)methyl)pyridin-3-y1)-1H-1,2,3-triazol-1-yl)-22-deoxypleuromutilin-16 passages resistance developed Staphylococcus aureus USA300 FPR3757 assessed as fold increase in MIC at sub-MIC concentration measured after 5 passages with conjugate by serial passage assay; format: functional
[39] = tested on: Staphylococcus aureus; experiment: as §1, with “after 22” for “after 5”; format: functional
[40] = tested on: Staphylococcus aureus; experiment: as §1, with “after 9” for “after 5”; format: functional
[41] = tested on: Staphylococcus aureus; experiment: as §1, with “after 13” for “after 5”; format: functional

SMILES	MIC [2]	CLint scaled at 0.5 h, 1 µM [3]	MIC [4]	efflux ratio at 2 h, 280 µM [5]	IC50 [6]	IC50 [7]	Papp B→A at 2 h, 280 µM [8]	Activity [9]	Papp A→B at 2 h, 280 µM [10]	MIC [11]	MIC [12]	Activity [13]	MIC [16]	fraction unbound at 5 h, up to 15 µM [17]	efflux ratio at 2 h, 100 µM [18]	half-life at 0.5 h, 1 µM [20]	CLint scaled at 0.5 h, 1 µM [21]	inhibition (INH) [22]	Activity [23]	half-life at 0.5 h, 1 µM [24]	also measured
C=C[C@]1(C)C[C@@H](OC(=O)Cn2cc(-c3ccc(Cn4cnc5c(N6CCNCC6)ncnc54)nc3)nn2)[C@]2(C)[C@H](C)CC[C@]3(CCC(=O)[C@H]32)[C@@H](C)[C@@H]1O	0.12 µg/mL (≈ 0.166 µM)	929 mL/min/kg	0.03 µg/mL (≈ 0.0415 µM)	2.5	47 µM	0.41 µM	5.34 ×10⁻⁶ cm/s	~3 log10CFU/ml	2.12 ×10⁻⁶ cm/s	0.12 µg/mL (≈ 0.166 µM)	0.12 µg/mL (≈ 0.166 µM)	3 log10CFU/ml	0.03 µg/mL (≈ 0.0415 µM)	0.27	48	5.9 min	4200 mL/min/kg	99.9%	Non-Toxic	1.3 min	AUC [1]: 1.6 µg/mL/min; CL/F [14]: 140 mL/min/kg; bioavailability [15]: 6%; AUC [19]: 22.5 µg/mL/min; Activity [25]: 2 log10CFU/ml; AUC [26]: 821 µg/mL/min; k el at 4 h [27]: 8.67e-05 s⁻¹; half-life at 0.5 h, 1 µM [28]: 3.7 min; solubility at 24 h [29]: 114 µM (≈ 82.4 µg/mL); k el [30]: 0.000218 s⁻¹; inhibition at 8 min, 60 µM [31]: 27.4%; Papp A→B at 2 h, 100 µM [32]: 0.48 ×10⁻⁶ cm/s; Tmax [33]: 0 h; IC50 [34]: > 200 µM; CLint scaled at 0.5 h, 1 µM [35]: 1710 mL/min/kg; Papp B→A at 2 h, 100 µM [36]: 23 ×10⁻⁶ cm/s; Cmax [37]: 8560 ng/mL
C=C[C@]1(C)C[C@@H](OC(=O)CS[C@@H]2CC[C@@H](N)C[C@H]2O)[C@]2(C)[C@H](C)CC[C@]3(CCC(=O)[C@H]32)[C@@H](C)[C@@H]1O [LEFAMULIN]	0.12 µg/mL (≈ 0.236 µM)	478 mL/min/kg	0.25 µg/mL (≈ 0.492 µM)	3.9	43 µM	0.75 µM	12.5 ×10⁻⁶ cm/s	2.5 log10CFU/ml	3.19 ×10⁻⁶ cm/s	0.06 µg/mL (≈ 0.118 µM)	0.12 µg/mL (≈ 0.236 µM)	3 log10CFU/ml	0.12 µg/mL (≈ 0.236 µM)	0.34	40.8	11.5 min	359 mL/min/kg	99.9%	Non-Toxic	15.3 min	fold change (FC) [38]: 8; fold change (FC) [39]: 32; fold change (FC) [40]: 8; Activity [25]: 2 log10CFU/ml; half-life at 0.5 h, 1 µM [28]: 4.3 min; solubility at 24 h [29]: 1920 µM (≈ 973 µg/mL); inhibition at 8 min, 60 µM [31]: 32.8%; Papp A→B at 2 h, 100 µM [32]: 0.63 ×10⁻⁶ cm/s; IC50 [34]: 126 µM; CLint scaled at 0.5 h, 1 µM [35]: 1460 mL/min/kg; fold change (FC) [41]: 16; Papp B→A at 2 h, 100 µM [36]: 25.7 ×10⁻⁶ cm/s
